Source: PubChem BioAssay AID248 (DTP/NCI, 2004)
Where “and” joins values, the source holds several entries; their conditions need not be identical. Equal entries are not always repeated. Toxic doses and inconclusive results are not listed. Cut-off read from the data, not from the text of the source: active = T/C of 150% or more; inactive = T/C below 125%.

Test system: L1210 leukemia ip in BDF1 mice, survival T/C
Assay: NCI In Vivo Anticancer Drug Screen. Data for tumor model L1210 Leukemia (intraperitoneal) in B6D2F1 (BDF1) mice
Settings: endpoint: mean survival time, higher = longer survival
How it was run: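 Tumor was transplanted into mice, which were then dosed with test compound or vehicle alone. Survival was recorded for each group, and the treated figure was expressed relative to the control figure.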

[1] = dose: 100.0 mg/kg/injection, schedule: Q01DX009 (ip), vehicle: Klucel (hydroxypropylcellulose) (HPC)
[2] = dose: 100.0 mg/kg/injection, schedule: Q04DX003 (ip), vehicle: Klucel (hydroxypropylcellulose) (HPC)
[3] = dose: 200.0 mg/kg/injection, schedule: Q01DX009 (ip), vehicle: Klucel (hydroxypropylcellulose) (HPC)
[4] = dose: 200.0 mg/kg/injection, schedule: Q04DX003 (ip), vehicle: Klucel (hydroxypropylcellulose) (HPC)
[5] = dose: 400.0 mg/kg/injection, schedule: Q01DX009 (ip), vehicle: Klucel (hydroxypropylcellulose) (HPC)
[6] = dose: 400.0 mg/kg/injection, schedule: Q04DX003 (ip), vehicle: Klucel (hydroxypropylcellulose) (HPC)
[7] = dose: 100.0 mg/kg/injection, schedule: Q01DX001 (ip), vehicle: saline
[8] = dose: 200.0 mg/kg/injection, schedule: Q01DX001 (ip), vehicle: saline
[9] = dose: 400.0 mg/kg/injection, schedule: Q01DX001 (ip), vehicle: saline
[10] = dose: 100.0 mg/kg/injection, schedule: Q04DX003 (ip), vehicle: saline
[11] = dose: 200.0 mg/kg/injection, schedule: Q04DX003 (ip), vehicle: saline
[12] = dose: 400.0 mg/kg/injection, schedule: Q04DX003 (ip), vehicle: saline
[13] = dose: 100.0 mg/kg/injection, schedule: Q01DX001 (ip), vehicle: carboxymethylcellulose (CMC)
[14] = dose: 100.0 mg/kg/injection, schedule: Q04DX003 (ip), vehicle: saline sonified
[15] = dose: 200.0 mg/kg/injection, schedule: Q04DX003 (ip), vehicle: saline sonified
[16] = dose: 400.0 mg/kg/injection, schedule: Q04DX003 (ip), vehicle: saline sonified

Measured: T/C

CCCCC(=O)OC1CC2CCC1(C)C2(C)C (stereo not drawn)
inactive: [1] 102 % of control | [2] 96 % of control | [3] 102 % of control | [4] 96 % of control | [5] 104 % of control | [6] 100 % of control

CC1(C)C[n+]2noc([O-])c2C(C)(C)C1
inactive: dose: 0.19 mg/kg/injection, schedule: Q04DX003 (ip), vehicle: alcohol 104 % of control | dose: 0.39 mg/kg/injection, schedule: Q01DX009 (ip), vehicle: alcohol 100 % of control | dose: 0.39 mg/kg/injection, schedule: Q04DX003 (ip), vehicle: alcohol 96 % of control | dose: 0.78 mg/kg/injection, schedule: Q01DX009 (ip), vehicle: alcohol 105 % of control | dose: 0.78 mg/kg/injection, schedule: Q04DX003 (ip), vehicle: alcohol 113 % of control | dose: 1.56 mg/kg/injection, schedule: Q01DX009 (ip), vehicle: alcohol 105 % of control | dose: 1.56 mg/kg/injection, schedule: Q04DX003 (ip), vehicle: alcohol 96 % of control

CCCCCCCCCCCCCCCOc1ccc(C=Nc2ccc(C)cc2)cc1
inactive: [2] 93 % of control | [4] 102 % of control | [6] 102 % of control

O=[N+]([O-])c1ccc(P(=O)(O)O)cc1
inactive: dose: 50.0 mg/kg/injection, schedule: Q01DX001 (ip), vehicle: saline 103 % of control | [7] 101 % of control | [8] 107 % of control | [9] 115 % of control

c1ccc(OC2COC(Oc3ccccc3)CO2)cc1 (stereo not drawn)
inactive: [7] 97 % of control | dose: 100.0 mg/kg/injection, schedule: Q01DX009 (ip), vehicle: acetone 97 % of control | [10] 103 % of control | [8] 87 % of control | dose: 200.0 mg/kg/injection, schedule: Q01DX009 (ip), vehicle: acetone 92 % of control | [11] 97 % of control | [9] 90 % of control | dose: 400.0 mg/kg/injection, schedule: Q01DX009 (ip), vehicle: acetone 87 % of control | [12] 95 % of control

C=CCCCCCCCCC(=O)O (tested in a mixture with another compound)
inactive: dose: 10.0 mg/kg/injection, schedule: Q01DX001 (ip), vehicle: carboxymethylcellulose (CMC) 93 % of control | dose: 20.0 mg/kg/injection, schedule: Q01DX001 (ip), vehicle: carboxymethylcellulose (CMC) 104 % of control | dose: 40.0 mg/kg/injection, schedule: Q01DX001 (ip), vehicle: carboxymethylcellulose (CMC) 106 % of control | dose: 80.0 mg/kg/injection, schedule: Q01DX001 (ip), vehicle: carboxymethylcellulose (CMC) 101 % of control | [13] 97 % of control

CC1(C)CC([NH-])CC(C)(C)N1O.CC1(C)CC([NH-])CC(C)(C)N1O.[Cl][Pd][Cl]
inactive: [10] 94 % of control | [11] 105 % of control | [12] 90 % of control

CCCCC(C(=O)O)c1ccccc1 (stereo not drawn)
inactive: [14] 100 % of control | [15] 97 % of control | [16] 100 % of control

CCCCOC(=O)c1ccc(NC(=O)Nc2cc(Cl)ccc2OC)cc1
inactive: [1] 98 % of control | [3] 98 % of control | [5] 90 % of control

O=C(COc1ccc(Cl)cc1)C1CSc2ccc(Br)cc21 (stereo not drawn)
inactive: [14] 89 % of control | [15] 101 % of control | [16] 92 % of control

Cc1cccc(C[As](C)(=O)O)c1
inactive: dose: 25.0 mg/kg/injection, schedule: Q04DX003 (ip), vehicle: saline 94 % of control | dose: 50.0 mg/kg/injection, schedule: Q04DX003 (ip), vehicle: saline 98 % of control | [10] 100 % of control and 103 % of control

CCNC(=O)Nc1ccccc1
inactive: dose: 100.0 mg/kg/injection, schedule: Q04DX002 (ip), vehicle: Klucel (hydroxypropylcellulose) (HPC) 93 % of control | dose: 200.0 mg/kg/injection, schedule: Q04DX002 (ip), vehicle: Klucel (hydroxypropylcellulose) (HPC) 96 % of control

CCCCCCC(O)C(=O)O (stereo not drawn)
inactive: dose: 100.0 mg/kg/injection, schedule: Q04DX002 (ip), vehicle: saline with Tween-80 102 % of control | dose: 200.0 mg/kg/injection, schedule: Q04DX002 (ip), vehicle: saline with Tween-80 102 % of control

OCCc1ccc[nH]1
inactive: dose: 75.0 mg/kg/injection, schedule: Q01DX001 (ip), vehicle: saline 105 % of control | dose: 150.0 mg/kg/injection, schedule: Q01DX001 (ip), vehicle: saline 105 % of control | dose: 300.0 mg/kg/injection, schedule: Q01DX001 (ip), vehicle: saline 105 % of control

CCOC(=O)CNC(=O)Nc1ccccc1F
inactive: dose: 50.0 mg/kg/injection, schedule: Q01DX009 (ip), vehicle: gum acacia 93 % of control and 97 % of control | dose: 100.0 mg/kg/injection, schedule: Q01DX001 (ip), vehicle: gum acacia 101 % of control and 102 % of control | dose: 100.0 mg/kg/injection, schedule: Q04DX002 (ip), vehicle: gum acacia 96 % of control and 97 % of control | dose: 100.0 mg/kg/injection, schedule: Q04DX003 (ip), vehicle: gum acacia 94 % of control and 108 % of control | dose: 200.0 mg/kg/injection, schedule: Q01DX001 (ip), vehicle: gum acacia 100 % of control and 102 % of control | dose: 200.0 mg/kg/injection, schedule: Q04DX002 (ip), vehicle: gum acacia 93 % of control and 94 % of control | dose: 200.0 mg/kg/injection, schedule: Q04DX003 (ip), vehicle: gum acacia 94 % of control and 101 % of control | dose: 400.0 mg/kg/injection, schedule: Q01DX001 (ip), vehicle: gum acacia 95 % of control and 105 % of control | dose: 400.0 mg/kg/injection, schedule: Q01DX009 (ip), vehicle: gum acacia 90 % of control and 91 % of control | dose: 400.0 mg/kg/injection, schedule: Q04DX002 (ip), vehicle: gum acacia 96 % of control and 87 % of control | dose: 400.0 mg/kg/injection, schedule: Q04DX003 (ip), vehicle: gum acacia 95 % of control and 96 % of control

Cc1cc(OCCOC(=O)Nc2ccc(C)c([N+](=O)[O-])c2)ccc1Cl
inactive: dose: 50.0 mg/kg/injection, schedule: Q01DX009 (ip), vehicle: saline with Tween-80 93 % of control | dose: 100.0 mg/kg/injection, schedule: Q01DX009 (ip), vehicle: saline with Tween-80 87 % of control | dose: 200.0 mg/kg/injection, schedule: Q01DX009 (ip), vehicle: saline with Tween-80 87 % of control

Nc1nc(N)c2c(n1)CNC2
inactive: [13] 112 % of control | dose: 200.0 mg/kg/injection, schedule: Q01DX001 (ip), vehicle: carboxymethylcellulose (CMC) 112 % of control | dose: 400.0 mg/kg/injection, schedule: Q01DX001 (ip), vehicle: carboxymethylcellulose (CMC) 104 % of control
